Measured values reported in US4450167A, “3-Quinoline carboxamides having anxiolytic activity” (Roussel Uclaf, priority 1981, dated 1984).

Each molecule was assayed against benzodiazepine receptors (assay: Affinity for benzodiazepine receptors (3H Diazepam displacement, rat cortex membranes)). Conditions: rat brain cortex membranes, 3H Diazepam 10^-9 moles, 0° C., 30 minutes; read-out: CI50, concentration inhibiting by 50% the specific bonding of 3H diazepam.
Format: binding
Description: The test was inspired by Mohler et al [Science, No. 198 (1977), p. 849-851] in which the cortex was removed from the brains of male rats weighing an average of 150 g and homogenized at a ratio of 1 part by weight per 20 parts by volume of 0.32 M sucrose. The homogenized mixture was centrifuged at 1000 g for 10 minutes at 0° C. and the surnageant was centrifuged at 30,000 g for 20 minutes at 4° C. The culot was suspended in 20 volumes of Tris HCl 50 mM buffer with a pH of 7.4 and the suspension was centrifuged at 30,000 g for 20 minutes at 4° C. The resulting culot was suspended in 50 ml of Krebs Tris HCl buffered at a pH of 7.4 and 2 ml of the suspension was incubated at 0° C. for 30 minutes in the presence of ^3 H Diazepam at a concentration of 10^-9 moles with increasing concentration of the test product to determine the non-specificfixation with non-radioactive Diazepam at a concentration of 10^-6 moles.
The incubated suspensions were filtered through a Whatman GF/C filter and the filters were washed twice with 5 ml of Krebs Tris HCl buffer at a pH of 7.4 not 0° C. The radioactivity of the filters was measured by liquid scintillation and the affinity of the test product for benzodiazepine receptors was expressed in CI50 or the concentration inhibiting by 50% the specific bonding of ^3 H diapezam.

Question: With `CCNC(=O)c1cnc2ccccc2c1O` [Example 8, 4-hydroxy-N-ethyl-3-quinoline-carboxamide] as the molecule, how does the IC50 read?
Answer: 11 nM

Question: `CCOc1ccc(NC(=O)c2cnc3ccccc3c2O)cc1` [Example 1, 4-hydroxy-N-(4-ethoxyphenyl)-3-quinoline-carboxamide] was tested. Which IC50 did it give?
Answer: 40 nM

Question: Which IC50 does the source give for `COc1ccccc1NC(=O)c1cnc2ccccc2c1O` [Example 13, 4-hydroxy-N-(2-methoxy-phenyl)-3-quinoline-carboxamide] here?
Answer: 54 nM

Question: Which IC50 does the source give for `COc1ccc(NC(=O)c2c(C)nc3ccccc3c2O)cc1` [Example 23, 4-hydroxy-N-(4-methoxyphenyl)-2-methyl-3-quinoline-carboxamide] here?
Answer: 23 nM

Question: Which IC50 does the source give for `O=C(Nc1ccc(O)cc1)c1cnc2ccccc2c1O` [Example 7, 4-hydroxy-N-(4-hydroxyphenyl)-3-quinoline-carboxamide] here?
Answer: 4.4 nM

Question: For `COc1ccc(NC(=O)c2cnc3ccccc3c2O)cc1` [Example 6, 4-hydroxy-N-(4-methoxyphenyl)-3-quinoline-carboxamide], which IC50 is on record?
Answer: 7.5 nM

Question: With `COc1cccc(NC(=O)c2cnc3ccccc3c2O)c1` [Example 16, 4-hydroxy-N-(3-methoxy-phenyl)-3-quinoline-carboxamide] as the molecule, how does the IC50 read?
Answer: 6.6 nM

Question: With `CCCCNC(=O)c1cnc2ccccc2c1O` [Example 9, 4-hydroxy-N-butyl-3-quinoline-carboxamide] as the molecule, how does the IC50 read?
Answer: 3.7 nM

Question: For `CCCCCCNC(=O)c1cnc2ccccc2c1O` [Example 10, 4-hydroxy-N-n-hexyl-3-quinoline-carboxamide], which IC50 is on record?
Answer: 6.7 nM

Question: Which IC50 does the source give for `CCCNC(=O)c1cnc2ccccc2c1O` [Example 24, 4-hydroxy-N-propyl-3-quinoline-carboxamide] here?
Answer: 1.2 nM
